Common to all, as to type: in vivo
The test system of assay [1] is Beet Armyworm (Spodoptera exigua). Briefly: Bioassay on Beet Armyworm (BAW), 128-well diet tray assay. The following applies: Beet Armyworm, Table ABC, read-out: BAW rating. Summed up:
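Second-instar larvae (one to five per well) placed on artificial diet surface-treated with 50 μg/cm^2 test molecule in 90:10 acetone-water, dried, eight wells per molecule. Held at 25° C, 14:10 light-dark, five to seven days; percent mortality recorded per well and averaged across the eight wells.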

The subject of assay [2] is Cabbage Looper (Trichoplusia ni). Nature of the assay: Bioassay on Cabbage Looper (CL), 128-well diet tray assay. The following applies: Cabbage Looper, Table ABC, read-out: CL rating. Summed up:
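Second-instar larvae, one to five per well, placed on artificial diet surface-treated with 50 μg/cm^2 compound in acetone-water, eight wells per compound. Held 5-7 days at 25° C, 14:10 light-dark; percent mortality per well averaged across wells.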

In assay [3] the test system is Green Peach Aphid (Myzus persicae). Nature of the assay: Bioassay on Green Peach Aphid (GPA), foliar spray on cabbage seedlings. To be noted: 72 h, Table ABC, read-out: GPA rating. The procedure: Example B: Bioassays on Green Peach Aphid (Myzus Persicae, MYZUPE) (“GPA”) Certain molecules disclosed in this document were tested against GPA using procedures described in the following example. In the reporting of the results, the “GPA & YFM Rating Table” was used (See Table Section). Cabbage seedlings grown in 3-inch pots, with 2-3 small (3-5 cm) true leaves, were used as test substrate. The seedlings were infested with 20-50 GPA (wingless adult and nymph stages) one day prior to chemical application. Four pots with individual seedlings were used for each treatment. Test molecules (2 mg) were dissolved in 2 mL of acetone/methanol (1:1) solvent, forming stock solutions of 1000 ppm test molecule. The stock solutions were diluted 5× with 0.025% Tween 20 in water to obtain the solution at 200 ppm test molecule. A hand-held aspirator-type sprayer was used for spraying a solution to both sides of […] leaves until runoff. Reference plants (solvent check) were sprayed with the diluent only containing 20% by volume of acetone/methanol (1:1) solvent. Treated plants were held in a holding room for three days at approximately 25° C. and ambient relative humidity (RH) prior to grading. Evaluation was conducted by counting the number of live aphids per plant under a microscope. Percent Control was measured by using Abbott's correction formula (W. S. Abbott, “A Method of Computing the Effectiveness of an Insecticide” J. Econ. Entomol. 18 (1925), pp. 265-267) as follows. Corrected % Control=100*(X−Y)/X • where • X=No. of live aphids on solvent check plants and • Y=No. of live aphids on treated plants The results are indicated in the table entitled “Table ABC: Biological Results” (See Table Section).

Assay [4] deals with Yellow Fever Mosquito (Aedes aegypti). Nature of the assay: Bioassay on Yellow Fever Mosquito (YFM) larvae, 96-well plate. The following applies: Table ABC. Summed up:
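About 1-day-old larvae in water with liver powder were added to wells holding compound from a 4000 ppm DMSO master diluted in 90:10 water:acetone. Plates covered and kept at room temperature for 3 days, then each well scored for mortality on a rating scale.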

For `O=C(N[C@@H]1CON(CC(F)(F)F)C1=O)c1ccc(/C(F)=C/C(c2cc(Cl)c(Cl)c(Cl)c2)C(F)F)cc1C(F)(F)F` (stereo partly drawn) [F177, N—((R)-3-Oxo-2-(2,2,2-trifluoroethyl)isoxazolidin-4-yl)-4-((Z)-1,4,4-trifluoro-3-(3,4,5-trichlorophenyl)but-1-en-1-yl)-2-(trifluoromethyl)benzamide], the pest or weed control at 50 µg/cm2 in assay [1] and in assay [2] was 50 to 100% each time. Also, the pest or weed control at 200 µg/mL in assay [3] was in the range of 80 to 100%. Also, the YFM rating result in assay [4] is “A (80-100)”.
Turning to `O=C(NC1(C(=O)NCC(F)(F)F)CC1)c1ccc(/C(F)=C/C(c2ccc(Br)c(Cl)c2)C(F)(F)F)cc1C(F)(F)F` (centres unmarked) [PF27], the pest or weed control at 50 µg/cm2 in assay [1] and in assay [2] was 50 to 100% throughout. Further, the pest or weed control at 200 µg/mL in assay [3] is 80 to 100%. Also, the YFM rating entry in assay [4] was “B (More than 0-Less than 80)”.
With `CN(CC(F)(F)F)C(=O)CNC(=O)c1ccc(/C(F)=C/C(c2ccc(Br)c(Cl)c2)C(F)(F)F)cc1C(F)(F)F` (centres unmarked) [PF24, (Z)-4-(3-(4-Bromo-3-chlorophenyl)-1,4,4,4-tetrafluorobut-1-en-1-yl)-N-(2-(methyl(2,2,2-trifluoroethyl)amino)-2-oxoethyl)-2-(trifluoromethyl)benzamide], the pest or weed control at 50 µg/cm2 in assay [1] and in assay [2] was 50 to 100% each time. Further, the pest or weed control at 200 µg/mL in assay [3] lay in the range of 80 to 100%. The YFM rating entry in assay [4] was “A (80-100)”.
`CCN(CC(F)(F)F)C(=O)CNC(=O)c1ccc(/C(F)=C/C(c2cc(Cl)c(Cl)c(Cl)c2)C(F)(F)F)cc1C(F)(F)F` (centres unmarked) [F167, (Z)—N-(2-(ethyl(2,2,2-trifluoroethyl)amino)-2-oxoethyl)-4-(1,4,4,4-tetrafluoro-3-(3,4,5-trichlorophenyl)but-1-en-1-yl)-2-(trifluoromethyl)benzamide]: the pest or weed control at 50 µg/cm2 in assay [1] and in assay [2] was 50 to 100% in each case. In addition, the pest or weed control at 200 µg/mL in assay [3] is 80 to 100%. Further, in assay [4], the YFM rating result is reported as “A (80-100)”.
For the compound `CN(CC(F)(F)F)C(=O)CNC(=O)c1ccc(/C(F)=C/C(c2ccc(F)c(Cl)c2)C(F)(F)F)cc1C(F)(F)F` (centres unmarked) [PF6, (Z)-4-(3-(3-Chloro-4-fluorophenyl)-1,4,4,4-tetrafluorobut-1-en-1-yl)-N-(2-(methyl(2,2,2-trifluoroethyl)amino]-2-oxoethyl)-2-(trifluoromethyl)benzamide], the pest or weed control at 50 µg/cm2 in assay [1] and in assay [2] was 50 to 100% each time. In addition, in assay [3], the pest or weed control at 200 µg/mL is 80 to 100%. The YFM rating result in assay [4] was “A (80-100)”.

The record behind these values is patent publication US10251394B2, “Molecules having pesticidal utility, and intermediates, compositions, and processes, related thereto” (Dow AgroSciences LLC, priority 2016, dated 2019).
